Source: publication PMC10657444, “Design and evaluation of tadpole-like conformational antimicrobial peptides” (Communications Biology, 2023)
Residues, ends and D or L forms follow the SMILES beside them.

Key:
MRSA USA 300 = assay: microbe, parasite or virus in culture; assay type: cell-based, Staphylococcus aureus
Experimental: (§1) MRSA USA 300 and K. pneumoniae ATCC 700603 were employed to assess the development of resistance. From inoculated microtiter panels, an aliquot of the well with the highest concentration permitting growth was taken and back diluted in fresh media to a turbidity of a 0.5 McFarland standard. This suspension was then further diluted and used to inoculate a fresh MIC panel resulting in a final concentration of 5 × 10^6 CFU/mL. Panels were incubated according to CLSI guidelines (M07, 11th edition, 2018), MICs were recorded and the next inoculum was prepared from the well containing the highest concentration of drug that allowed growth in identical fashion as described above.

[1] = system: K. pneumoniae ATCC 700603; assay: microbe, parasite or virus in culture; assay type: cell-based, Klebsiella pneumoniae
Experimental: as §1

Which results are given for `CC[C@H](C)[C@H](NC(=O)[C@H](CCCNC(=N)N)NC(=O)[C@H](CCCNC(=N)N)NC(=O)[C@H](CC(C)C)NC(=O)[C@H](Cc1ccccc1)NC(=O)[C@@H](N)CCCNC(=N)N)C(=O)N[C@@H](Cc1ccccc1)C(=O)N[C@@H](Cc1ccccc1)C(=O)N[C@@H](Cc1ccccc1)C(=O)N[C@@H](Cc1ccccc1)C(N)=O` [HT2] (H-RFLRRIFFFF-NH2)?
Concentration (MIC in drug resistance assay) (MRSA USA 300; MRSA USA 300, day 32): 12.5 mg/L; Concentration (MIC in drug resistance assay) (MRSA USA 300; MRSA USA 300, day 33): 12.5 mg/L; Concentration (MIC in drug resistance assay) (MRSA USA 300; MRSA USA 300, day 34): 12.5 mg/L; Concentration (MIC in drug resistance assay) (MRSA USA 300; MRSA USA 300, day 35): 12.5 mg/L; Concentration (MIC in drug resistance assay) (MRSA USA 300; MRSA USA 300, day 37): 12.5 mg/L; Concentration (MIC in drug resistance assay) (MRSA USA 300; MRSA USA 300, day 38): 12.5 mg/L; Concentration (MIC in drug resistance assay) (MRSA USA 300; MRSA USA 300, day 39): 12.5 mg/L; Concentration (MIC in drug resistance assay) (MRSA USA 300; MRSA USA 300, day 40): 12.5 mg/L; increase in MIC after 40 passages (MRSA USA 300; serial passage at sub-MIC): four-fold; Concentration (MIC in drug resistance assay) ([1]; K. pneumoniae ATCC 700603, day 0): 6.25 mg/L; Concentration (MIC in drug resistance assay) ([1]; K. pneumoniae ATCC 700603, day 1): 6.25 mg/L; Concentration (MIC in drug resistance assay) ([1]; K. pneumoniae ATCC 700603, day 2): 6.25 mg/L; Concentration (MIC in drug resistance assay) ([1]; K. pneumoniae ATCC 700603, day 3): 12.5 mg/L; Concentration (MIC in drug resistance assay) ([1]; K. pneumoniae ATCC 700603, day 4): 12.5 mg/L; Concentration (MIC in drug resistance assay) ([1]; K. pneumoniae ATCC 700603, day 5): 6.25 mg/L; Concentration (MIC in drug resistance assay) ([1]; K. pneumoniae ATCC 700603, day 6): 6.25 mg/L; Concentration (MIC in drug resistance assay) ([1]; K. pneumoniae ATCC 700603, day 7): 6.25 mg/L; Concentration (MIC in drug resistance assay) ([1]; K. pneumoniae ATCC 700603, day 8): 6.25 mg/L; Concentration (MIC in drug resistance assay) ([1]; K. pneumoniae ATCC 700603, day 9): 6.25 mg/L; Concentration (MIC in drug resistance assay) ([1]; K. pneumoniae ATCC 700603, day 10): 12.5 mg/L; Concentration (MIC in drug resistance assay) ([1]; K. pneumoniae ATCC 700603, day 11): 12.5 mg/L; Concentration (MIC in drug resistance assay) ([1]; K. pneumoniae ATCC 700603, day 12): 12.5 mg/L; Concentration (MIC in drug resistance assay) ([1]; K. pneumoniae ATCC 700603, day 13): 12.5 mg/L; Concentration (MIC in drug resistance assay) ([1]; K. pneumoniae ATCC 700603, day 14): 25 mg/L; Concentration (MIC in drug resistance assay) ([1]; K. pneumoniae ATCC 700603, day 15): 25 mg/L; Concentration (MIC in drug resistance assay) ([1]; K. pneumoniae ATCC 700603, day 16): 25 mg/L; Concentration (MIC in drug resistance assay) ([1]; K. pneumoniae ATCC 700603, day 17): 25 mg/L; Concentration (MIC in drug resistance assay) ([1]; K. pneumoniae ATCC 700603, day 18): 12.5 mg/L; Concentration (MIC in drug resistance assay) ([1]; K. pneumoniae ATCC 700603, day 19): 25 mg/L; Concentration (MIC in drug resistance assay) ([1]; K. pneumoniae ATCC 700603, day 20): 25 mg/L; Concentration (MIC in drug resistance assay) ([1]; K. pneumoniae ATCC 700603, day 21): 25 mg/L; Concentration (MIC in drug resistance assay) ([1]; K. pneumoniae ATCC 700603, day 22): 12.5 mg/L; Concentration (MIC in drug resistance assay) ([1]; K. pneumoniae ATCC 700603, day 23): 25 mg/L; Concentration (MIC in drug resistance assay) ([1]; K. pneumoniae ATCC 700603, day 24): 50 mg/L; Concentration (MIC in drug resistance assay) ([1]; K. pneumoniae ATCC 700603, day 25): 25 mg/L; Concentration (MIC in drug resistance assay) ([1]; K. pneumoniae ATCC 700603, day 26): 25 mg/L; Concentration (MIC in drug resistance assay) ([1]; K. pneumoniae ATCC 700603, day 27): 25 mg/L; Concentration (MIC in drug resistance assay) ([1]; K. pneumoniae ATCC 700603, day 28): 25 mg/L; Concentration (MIC in drug resistance assay) ([1]; K. pneumoniae ATCC 700603, day 29): 25 mg/L; Concentration (MIC in drug resistance assay) ([1]; K. pneumoniae ATCC 700603, day 30): 50 mg/L; Concentration (MIC in drug resistance assay) ([1]; K. pneumoniae ATCC 700603, day 31): 25 mg/L; Concentration (MIC in drug resistance assay) ([1]; K. pneumoniae ATCC 700603, day 32): 25 mg/L; Concentration (MIC in drug resistance assay) ([1]; K. pneumoniae ATCC 700603, day 33): 25 mg/L; Concentration (MIC in drug resistance assay) ([1]; K. pneumoniae ATCC 700603, day 34): 12.5 mg/L; Concentration (MIC in drug resistance assay) ([1]; K. pneumoniae ATCC 700603, day 35): 25 mg/L; Concentration (MIC in drug resistance assay) ([1]; K. pneumoniae ATCC 700603, day 36): 25 mg/L; Concentration (MIC in drug resistance assay) ([1]; K. pneumoniae ATCC 700603, day 37): 50 mg/L; Concentration (MIC in drug resistance assay) ([1]; K. pneumoniae ATCC 700603, day 38): 25 mg/L; Concentration (MIC in drug resistance assay) ([1]; K. pneumoniae ATCC 700603, day 39): 25 mg/L; Concentration (MIC in drug resistance assay) ([1]; K. pneumoniae ATCC 700603, day 40): 25 mg/L; increase in MIC after 40 passages ([1]; serial passage at sub-MIC): four-fold
